Test results published in patent US8106055B2, “Substituted amide compounds” (Gruenenthal GmbH, priority 2007, dated 2012).

Assays:
[1] = target: T1, serotonin (5-HT) reuptake (Rattus norvegicus, UniProt P31652); assay: Inhibition of serotonin (5HT) reuptake in synaptosomes from rat brain; format: biochemical; conditions: test concentration of 10 μM
T1 construct: synaptosomes are freshly isolated from areas of the rat brain; from tissue; host or cells: rat brain synaptosomes (P2 fraction)
Summary of the method: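 Freshly isolated rat brain synaptosomes (P2 fraction) used for 5-HT reuptake. Test compound at 10 μM, activity given as % inhibition.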

[2] = target: T2, human μ opiate receptor (Homo sapiens, UniProt P35372); assay: Affinity for the human μ opiate receptor ([3H]-naloxone displacement, CHO-K1 receptor membrane preparation, SPA); format: binding; conditions: test concentration of 1 μM
T2 construct: purchased PerkinElmer Life Sciences, Zaventem, Belgium RB-HOM; host or cells: CHO-K1 cells (membrane preparation)
T2 sequence (P35372 whole entry): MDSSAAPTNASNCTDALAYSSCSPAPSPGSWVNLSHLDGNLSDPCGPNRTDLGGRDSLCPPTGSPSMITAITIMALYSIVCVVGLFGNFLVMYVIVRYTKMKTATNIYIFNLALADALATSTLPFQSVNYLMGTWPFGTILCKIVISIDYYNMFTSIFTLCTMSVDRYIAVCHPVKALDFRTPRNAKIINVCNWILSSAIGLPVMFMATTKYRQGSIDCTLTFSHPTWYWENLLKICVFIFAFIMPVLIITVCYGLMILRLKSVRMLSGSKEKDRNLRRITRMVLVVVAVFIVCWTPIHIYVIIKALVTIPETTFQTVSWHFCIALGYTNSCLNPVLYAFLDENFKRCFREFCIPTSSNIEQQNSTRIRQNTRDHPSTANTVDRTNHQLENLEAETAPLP
Summary of the method: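 CHO-K1 membranes expressing human μ receptor incubated 90 min at room temperature with 1 nmol/l [3H]-naloxone and WGA-SPA beads in 50 mmol/l Tris-HCl, 0.06% BSA; 100 μmol/l naloxone defines non-specific binding. Values are % inhibition of specific binding at 1 μM; IC50 converted to Ki by Cheng-Prusoff.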

T1 sequence (P31652 whole entry): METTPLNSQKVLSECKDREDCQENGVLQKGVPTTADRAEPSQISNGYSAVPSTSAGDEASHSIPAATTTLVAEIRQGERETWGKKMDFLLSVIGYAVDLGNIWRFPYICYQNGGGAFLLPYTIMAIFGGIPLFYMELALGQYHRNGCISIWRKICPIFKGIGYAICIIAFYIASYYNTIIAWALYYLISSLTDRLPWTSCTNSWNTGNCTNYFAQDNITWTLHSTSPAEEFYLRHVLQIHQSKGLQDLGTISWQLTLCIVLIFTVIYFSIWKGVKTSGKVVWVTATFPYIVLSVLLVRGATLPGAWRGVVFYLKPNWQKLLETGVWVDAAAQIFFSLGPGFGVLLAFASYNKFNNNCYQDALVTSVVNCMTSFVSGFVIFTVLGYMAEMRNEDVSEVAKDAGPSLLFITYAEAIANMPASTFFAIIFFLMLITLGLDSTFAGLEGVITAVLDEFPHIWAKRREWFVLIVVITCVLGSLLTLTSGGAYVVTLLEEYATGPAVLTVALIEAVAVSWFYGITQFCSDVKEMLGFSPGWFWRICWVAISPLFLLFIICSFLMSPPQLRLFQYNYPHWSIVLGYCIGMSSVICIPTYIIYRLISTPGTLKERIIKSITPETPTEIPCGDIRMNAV

Compound	5-HT (inhibition of reuptake of serotonin, % inhibition) [1]	μ (binding on the μ opioid receptor, % inhibition) [2]
COc1ccc(S(=O)(=O)N2CCC(OCC(=O)NC3CCC(C(c4cccc(F)c4)N(C)C)CC3)C2)cc1OC (centres unmarked) [Example 323]	91%	67%
COc1ccc(S(=O)(=O)N(C)CCOCC(=O)NCC2CCC(C(c3ccc(Cl)cc3)N(C)C)CC2)cc1 (centres unmarked) [Example 324]	83%	62%
CN(C)C(c1cccc(F)c1)C1CCC(CCNC(=O)COCCN2CCN(S(=O)(=O)c3ccccc3)CC2)CC1 (centres unmarked) [Example 325]	96%	68%
CN(C)C(c1cccc(F)c1)C1CCC(CCNC(=O)COC2CCCN(S(=O)(=O)c3ccccc3)C2)CC1 (centres unmarked) [Example 326]	97%	67%
CCN(CCOCC(=O)NCC1CCC(C(c2ccc(F)cc2)N(C)C)CC1)S(=O)(=O)c1c(C)cc(OC)c(C)c1C (centres unmarked) [Example 327]	90%	67%
COc1ccc(S(=O)(=O)N2CCCCC2COCC(=O)NCC2CCC(C(c3cccc(F)c3)N(C)C)CC2)cc1OC (centres unmarked) [Example 329]	91%	66%
CN(C)C(c1ccc(F)cc1)C1CCC(NC(=O)COC2CCN(S(=O)(=O)c3cccc(C(F)(F)F)c3)C2)CC1 (centres unmarked) [Example 330]	90%	54%
CN(C)C(c1ccc(Cl)cc1)C1CCC(CNC(=O)COC2CCN(S(=O)(=O)c3cccc(C(F)(F)F)c3)C2)CC1 (centres unmarked) [Example 331]	84%	61%
Cc1cc(C)c(S(=O)(=O)N2CCC(OCC(=O)NC3CCC(C(c4ccc(F)cc4)N(C)C)CC3)C2)c(C)c1 (centres unmarked) [Example 332]	88%	58%
CN(C)C(c1cccc(F)c1)C1CCC(CNC(=O)COCCC2CCN(S(=O)(=O)c3ccccc3)CC2)CC1 (centres unmarked) [Example 333]	84%	65%
CN(C)C(c1ccc(F)cc1)C1CCC(CNC(=O)COCCN(C)S(=O)(=O)c2c(Cl)cccc2Cl)CC1 (centres unmarked) [Example 334]	83%	66%
CN(C)C(c1cccc(F)c1)C1CCC(NC(=O)COC2CCN(S(=O)(=O)c3ccccc3)CC2)CC1 (centres unmarked) [Example 335]	93%	58%
CN(C)C(c1ccc(F)cc1)C1CCC(NC(=O)COCCN(Cc2ccccc2)S(=O)(=O)c2ccccc2)CC1 (centres unmarked) [Example 336]	96%	59%
CN(C)C(c1ccc(F)cc1)C1CCC(CCNC(=O)COCC2CCCCN2S(=O)(=O)c2ccc(Cl)c(Cl)c2)CC1 (centres unmarked) [Example 337]	96%	64%
COc1ccc(S(=O)(=O)N2CCC(OCC(=O)NCCC3CCC(C(c4ccc(Cl)cc4)N(C)C)CC3)C2)cc1OC (centres unmarked) [Example 338]	86%	69%
COc1ccc(S(=O)(=O)N(C)CCOCC(=O)NCCC2CCC(C(c3ccc(Cl)cc3)N(C)C)CC2)cc1OC (centres unmarked) [Example 339]	78%	63%
COc1ccc(S(=O)(=O)N(C)CCOCC(=O)NCC2CCC(C(c3cccc(F)c3)N(C)C)CC2)cc1 (centres unmarked) [Example 340]	81%	69%
CN(C)C(c1cccs1)C1CCC(NC(=O)COCCN2CCN(S(=O)(=O)c3ccccc3)CC2)CC1 (centres unmarked) [Example 341]	85%	64%
CN(C)C(c1ccc(F)cc1)C1CCC(CNC(=O)COCCN(Cc2ccccc2)S(=O)(=O)c2ccccc2)CC1 (centres unmarked) [Example 342]	94%	57%

Compound	5-HT (inhibition of reuptake of serotonin, % inhibition) [1]	μ (binding on the μ opioid receptor, % inhibition) [2]
CN(C)C(c1ccc(Cl)cc1)C1CCC(CNC(=O)COCCN(Cc2ccccc2)S(=O)(=O)c2ccccc2)CC1 (centres unmarked) [Example 343]	94%	62%
CN(C)C(c1ccc(F)cc1)C1CCC(NC(=O)COCC2CCCN2S(=O)(=O)c2ccc(Cl)c(Cl)c2)CC1 (centres unmarked) [Example 344]	97%	64%
COc1ccc(S(=O)(=O)N2CCCCC2COCC(=O)NCC2CCC(C(c3ccc(F)cc3)N(C)C)CC2)cc1 (centres unmarked) [Example 345]	92%	64%
COc1ccc(S(=O)(=O)N2CCCC2COCC(=O)NCCC2CCC(C(c3ccc(Cl)cc3)N(C)C)CC2)cc1 (centres unmarked) [Example 346]	95%	63%
CN(C)C(c1ccc(Cl)cc1)C1CCC(CCNC(=O)COCCN(C)S(=O)(=O)c2ccc(Cl)cc2)CC1 (centres unmarked) [Example 347]	93%	63%
COc1cc(C)c(S(=O)(=O)N(C)CCOCC(=O)NCC2CCC(C(c3ccc(Cl)cc3)N(C)C)CC2)c(C)c1 (centres unmarked) [Example 348]	83%	61%
COc1ccc(S(=O)(=O)N2CCCCC2COCC(=O)NCCC2CCC(C(c3ccc(F)cc3)N(C)C)CC2)cc1 (centres unmarked) [Example 349]	94%	66%
COc1ccc(S(=O)(=O)N2CCCCC2CCOCC(=O)NCC2CCC(C(c3ccc(F)cc3)N(C)C)CC2)cc1 (centres unmarked) [Example 350]	92%	61%
COc1ccc(S(=O)(=O)N2CCCC2COCC(=O)NCC2CCC(C(c3ccc(Cl)cc3)N(C)C)CC2)cc1 (centres unmarked) [Example 351]	97%	63%
COc1ccc(S(=O)(=O)N2CCCCC2COCC(=O)NC2CCC(C(c3cccc(F)c3)N(C)C)CC2)cc1OC (centres unmarked) [Example 352]	91%	65%
COc1cc(C)c(S(=O)(=O)N(C)CCOCC(=O)NCCC2CCC(C(c3ccc(F)cc3)N(C)C)CC2)c(C)c1C (centres unmarked) [Example 354]	90%	61%
CN(C)C(c1cccc(F)c1)C1CCC(CNC(=O)COC2CCN(S(=O)(=O)c3ccccc3)C2)CC1 (centres unmarked) [Example 355]	102%	66%
CN(C)C(c1ccc(F)cc1)C1CCC(NC(=O)COCCN(C)S(=O)(=O)c2ccc(Cl)cc2Cl)CC1 (centres unmarked) [Example 356]	84%	55%
CN(C)C(c1ccc(F)cc1)C1CCC(NC(=O)COCCN(C)S(=O)(=O)c2ccc(F)cc2)CC1 (centres unmarked) [Example 357]	86%	57%
COc1cc(C)c(S(=O)(=O)N(CCOCC(=O)NCCC2CCC(C(c3cccc(F)c3)N(C)C)CC2)Cc2ccccc2)c(C)c1 (centres unmarked) [Example 358]	92%	71%
CN(C)C(c1ccc(F)cc1)C1CCC(CNC(=O)COC2CCCCC2N(C)S(=O)(=O)c2ccc(Cl)c(Cl)c2)CC1 (centres unmarked) [Example 359]	90%	60%
CN(C)C(c1ccc(F)cc1)C1CCC(NC(=O)COCCN(C)S(=O)(=O)c2ccc(OC(F)(F)F)cc2)CC1 (centres unmarked) [Example 361]	87%	59%
Cc1ccc(S(=O)(=O)N(C)CCOCC(=O)NCC2CCC(C(c3ccc(F)cc3)N(C)C)CC2)cc1 (centres unmarked) [Example 362]	105%	54%
